The NIST ThermoML archive (doi:10.1016/j.jct.2015.07.042)
± gives the expanded uncertainty stated by the source.

Experiment: activity coefficient (dimensionless); of the first substance listed, at infinite dilution; xn = mol fraction of the nth substance listed
Conditions: 101 kPa, Liquid, Chromatography, x1 = 0

| Compound | activity coefficient (358.15 K) | activity coefficient (368.15 K) | activity coefficient (378.15 K) | activity coefficient (388.15 K) | activity coefficient (398.15 K) | activity coefficient (408.15 K) | activity coefficient (418.15 K) | activity coefficient (428.15 K) |
| --- | --- | --- | --- | --- | --- | --- | --- | --- |
| C=CCCCCCC [oct-1-ene] + CCCCn1cc[n+](C)c1.CS(=O)(=O)[O-] | 88.1 ± 6 | 86.8 ± 6 | 86.5 ± 5.9 | 85.6 ± 5.9 | – | – | – | – |
| CCOC(C)(C)C [2-ethoxy-2-methylpropane] + CCCCn1cc[n+](C)c1.[Cl-] | 64.8 ± 4.4 | 59.3 ± 4.1 | 55.7 ± 3.8 | 53.3 ± 3.6 | – | – | – | – |
| c1ccncc1 [pyridine] + CCCCn1cc[n+](C)c1.[Cl-] | 1.47 ± 0.1 | 1.55 ± 0.1 | 1.64 ± 0.11 | 1.78 ± 0.12 | – | – | – | – |
| CC(C)O [propan-2-ol] + CCCCn1cc[n+](C)c1.[Cl-] | – | – | – | – | 0.542 ± 0.04 | 0.577 ± 0.041 | 0.619 ± 0.043 | 0.668 ± 0.045 |
| Cc1ccccc1 [toluene] + CCCCn1cc[n+](C)c1.[Cl-] | 7.78 ± 0.53 | 7.91 ± 0.54 | 8.09 ± 0.55 | 8.36 ± 0.57 | – | – | – | – |
| CCC(C)O (stereo not drawn) [butan-2-ol] + CCCCn1cc[n+](C)c1.[Cl-] | – | – | – | – | 0.749 ± 0.049 | 0.804 ± 0.052 | 0.865 ± 0.055 | 0.931 ± 0.059 |
| CCC(=O)OC [methyl propanoate] + CCCCn1cc[n+](C)c1.CS(=O)(=O)[O-] | 4.43 ± 0.3 | 4.56 ± 0.31 | 4.68 ± 0.32 | 4.9 ± 0.33 | – | – | – | – |
| C=COC(C)=O [vinyl acetate] + CCCCn1cc[n+](C)c1.[Cl-] | 5.66 ± 0.39 | 5.74 ± 0.39 | 5.86 ± 0.4 | 6.05 ± 0.41 | – | – | – | – |
| C#CCCC [1-pentyne] + CCCCn1cc[n+](C)c1.COP(=O)([O-])OC | 2.18 ± 0.15 | 2.32 ± 0.16 | 2.46 ± 0.17 | 2.6 ± 0.18 | – | – | – | – |
| C=CCCCCCCCC [1-decene] + CCCCn1cc[n+](C)c1.CS(=O)(=O)[O-] | 193 ± 13 | 187 ± 13 | 182 ± 12 | 179 ± 12 | – | – | – | – |
| C=CCCCCCC [oct-1-ene] + CCCCn1cc[n+](C)c1.COP(=O)([O-])OC | 27.5 ± 1.9 | 26.9 ± 1.8 | 26.5 ± 1.8 | 26.2 ± 1.8 | – | – | – | – |
| C1CCOC1 [tetrahydrofuran] + CCCCn1cc[n+](C)c1.[Cl-] | 5.66 ± 0.39 | 5.67 ± 0.39 | 5.67 ± 0.39 | 5.7 ± 0.39 | – | – | – | – |
| C#CCCCC [1-hexyne] + CCCCn1cc[n+](C)c1.COP(=O)([O-])OC | 3.01 ± 0.2 | 3.22 ± 0.22 | 3.39 ± 0.23 | 3.57 ± 0.24 | – | – | – | – |
| COC(C)=O [methyl ethanoate] + CCCCn1cc[n+](C)c1.COP(=O)([O-])OC | 2.58 ± 0.18 | 2.65 ± 0.18 | 2.73 ± 0.19 | 2.85 ± 0.19 | – | – | – | – |
| CCCCCCCCC [nonane] + CCCCn1cc[n+](C)c1.CS(=O)(=O)[O-] | 251 ± 17 | 239 ± 16 | 229 ± 16 | 223 ± 15 | – | – | – | – |
| COC(C)(C)C [2-methoxy-2-methylpropane] + CCCCn1cc[n+](C)c1.COP(=O)([O-])OC | 7.17 ± 0.49 | 7.35 ± 0.5 | 7.48 ± 0.51 | 7.66 ± 0.52 | – | – | – | – |
| Cc1ccccc1C [1,2-dimethylbenzene] + CCCCn1cc[n+](C)c1.COP(=O)([O-])OC | 5.54 ± 0.38 | 5.7 ± 0.39 | 5.79 ± 0.39 | 6.03 ± 0.41 | – | – | – | – |
| Cc1cccc(C)c1 [1,3-dimethylbenzene] + CCCCn1cc[n+](C)c1.CS(=O)(=O)[O-] | 9.27 ± 0.63 | 9.43 ± 0.64 | 9.57 ± 0.65 | 9.92 ± 0.68 | – | – | – | – |
| C=CCCCC [hex-1-ene] + CCCCn1cc[n+](C)c1.COP(=O)([O-])OC | 13.9 ± 0.95 | 13.7 ± 0.94 | 13.4 ± 0.91 | 13.2 ± 0.9 | – | – | – | – |
| C#CCCCC [1-hexyne] + CCCCn1cc[n+](C)c1.CS(=O)(=O)[O-] | 8.02 ± 0.55 | 8.52 ± 0.58 | 9.06 ± 0.62 | 9.64 ± 0.66 | – | – | – | – |
| CCCC(=O)OC [methyl butanoate] + CCCCn1cc[n+](C)c1.[Cl-] | 12.3 ± 0.84 | 12.4 ± 0.85 | 12.6 ± 0.86 | 12.7 ± 0.87 | – | – | – | – |
| CC(C)=O [acetone] + CCCCn1cc[n+](C)c1.CS(=O)(=O)[O-] | 2.06 ± 0.14 | 2.12 ± 0.14 | 2.22 ± 0.15 | 2.3 ± 0.16 | – | – | – | – |
| CC(C)O [propan-2-ol] + CCCCn1cc[n+](C)c1.CS(=O)(=O)[O-] | – | – | – | – | 0.835 ± 0.054 | 0.878 ± 0.056 | 0.928 ± 0.059 | 0.976 ± 0.061 |
| CO [methanol] + CCCCn1cc[n+](C)c1.CS(=O)(=O)[O-] | – | – | – | – | 0.325 ± 0.032 | 0.34 ± 0.032 | 0.357 ± 0.033 | 0.373 ± 0.033 |

| Compound | activity coefficient (358.15 K) | activity coefficient (368.15 K) | activity coefficient (378.15 K) | activity coefficient (388.15 K) | activity coefficient (398.15 K) | activity coefficient (408.15 K) | activity coefficient (418.15 K) | activity coefficient (428.15 K) |
| --- | --- | --- | --- | --- | --- | --- | --- | --- |
| C1CCCC1 [cyclopentane] + CCCCn1cc[n+](C)c1.COP(=O)([O-])OC | 8.76 ± 0.6 | 8.59 ± 0.59 | 8.41 ± 0.57 | 8.33 ± 0.57 | – | – | – | – |
| C#CCCC [1-pentyne] + CCCCn1cc[n+](C)c1.CS(=O)(=O)[O-] | 5.46 ± 0.37 | 5.84 ± 0.4 | 6.26 ± 0.43 | 6.67 ± 0.45 | – | – | – | – |
| CCC[N+](=O)[O-] [1-nitropropane] + CCCCn1cc[n+](C)c1.[Cl-] | 2.51 ± 0.17 | 2.61 ± 0.18 | 2.69 ± 0.18 | 2.8 ± 0.19 | – | – | – | – |
| C#CCCCC [1-hexyne] + CCCCn1cc[n+](C)c1.[Cl-] | 7.33 ± 0.5 | 7.85 ± 0.54 | 8.19 ± 0.56 | 8.61 ± 0.59 | – | – | – | – |
| CC1CCCCC1 [methylcyclohexane] + CCCCn1cc[n+](C)c1.CS(=O)(=O)[O-] | 52.8 ± 3.6 | 51.7 ± 3.5 | 50.9 ± 3.5 | 50.4 ± 3.5 | – | – | – | – |
| CC(C)OC(C)C [diisopropyl ether] + CCCCn1cc[n+](C)c1.[Cl-] | 78.5 ± 5.4 | 71.7 ± 4.9 | 64 ± 4.4 | 59.1 ± 4 | – | – | – | – |
| CCCO [propan-1-ol] + CCCCn1cc[n+](C)c1.COP(=O)([O-])OC | – | – | – | – | 0.197 ± 0.029 | 0.218 ± 0.029 | 0.239 ± 0.029 | 0.264 ± 0.03 |
| CCCCO [butan-1-ol] + CCCCn1cc[n+](C)c1.CS(=O)(=O)[O-] | – | – | – | – | 0.937 ± 0.059 | 0.984 ± 0.062 | 1.02 ± 0.064 | 1.07 ± 0.068 |
| O [water] + CCCCn1cc[n+](C)c1.[Cl-] | – | – | – | – | 0.07 ± 0.03 | 0.077 ± 0.03 | 0.085 ± 0.03 | 0.094 ± 0.03 |
| C1COCCO1 [1,4-dioxane] + CCCCn1cc[n+](C)c1.CS(=O)(=O)[O-] | 2.33 ± 0.16 | 2.41 ± 0.16 | 2.49 ± 0.17 | 2.62 ± 0.18 | – | – | – | – |
| CCOCC [diethyl ether] + CCCCn1cc[n+](C)c1.COP(=O)([O-])OC | 6.21 ± 0.42 | 6.3 ± 0.43 | 6.39 ± 0.44 | 6.48 ± 0.44 | – | – | – | – |
| CCCC(=O)OC [methyl butanoate] + CCCCn1cc[n+](C)c1.COP(=O)([O-])OC | 4.93 ± 0.34 | 5.04 ± 0.34 | 5.17 ± 0.35 | 5.39 ± 0.37 | – | – | – | – |
| CCC(=O)OC [methyl propanoate] + CCCCn1cc[n+](C)c1.COP(=O)([O-])OC | 3.56 ± 0.24 | 3.65 ± 0.25 | 3.76 ± 0.26 | 3.93 ± 0.27 | – | – | – | – |
| Cc1ccccc1C [1,2-dimethylbenzene] + CCCCn1cc[n+](C)c1.CS(=O)(=O)[O-] | 7.64 ± 0.52 | 7.79 ± 0.53 | 7.99 ± 0.54 | 8.21 ± 0.56 | – | – | – | – |
| CCc1ccccc1 [ethylbenzene] + CCCCn1cc[n+](C)c1.[Cl-] | 13.2 ± 0.9 | 13.2 ± 0.9 | 13.5 ± 0.92 | 13.7 ± 0.94 | – | – | – | – |
| CCCCCCCCCC [decane] + CCCCn1cc[n+](C)c1.[Cl-] | 704 ± 48 | 638 ± 44 | 580 ± 40 | 560 ± 39 | – | – | – | – |
| CCO [ethanol] + CCCCn1cc[n+](C)c1.[Cl-] | – | – | – | – | 0.297 ± 0.031 | 0.313 ± 0.031 | 0.332 ± 0.032 | 0.353 ± 0.032 |
| CCCC=O [butanal] + CCCCn1cc[n+](C)c1.[Cl-] | 5.24 ± 0.36 | 5.31 ± 0.36 | 5.43 ± 0.37 | 5.54 ± 0.38 | – | – | – | – |
| CCC[N+](=O)[O-] [1-nitropropane] + CCCCn1cc[n+](C)c1.CS(=O)(=O)[O-] | 1.89 ± 0.13 | 1.96 ± 0.13 | 2.02 ± 0.14 | 2.13 ± 0.14 | – | – | – | – |
| CCCCO [butan-1-ol] + CCCCn1cc[n+](C)c1.[Cl-] | – | – | – | – | 0.558 ± 0.04 | 0.594 ± 0.042 | 0.635 ± 0.044 | 0.68 ± 0.046 |
| CC(C)=O [acetone] + CCCCn1cc[n+](C)c1.[Cl-] | 3.05 ± 0.21 | 3.12 ± 0.21 | 3.17 ± 0.22 | 3.27 ± 0.22 | – | – | – | – |
| CCCC=O [butanal] + CCCCn1cc[n+](C)c1.CS(=O)(=O)[O-] | 3.33 ± 0.23 | 3.44 ± 0.23 | 3.58 ± 0.24 | 3.74 ± 0.25 | – | – | – | – |
| Cc1cccc(C)c1 [1,3-dimethylbenzene] + CCCCn1cc[n+](C)c1.[Cl-] | 14.3 ± 0.98 | 14.5 ± 0.99 | 14.7 ± 1 | 15 ± 1 | – | – | – | – |
